Here are results for one molecule from patent US20180092895A1, “METHOD OF TREATMENT OF HEPATITIS C” (priority 2016, published 2018).

Data set [1] in a line: HCV replicon assay, cell viability (CytoTox-1). It counts as cell-based. The following applies: human, Huh7 hepatoma cells containing a subgenomic HCV replicon, In vitro HCV replicon assay, post-infection, read-out: CC50 (concentration decreasing cell viability by 50%). How it is done: (§1) Stable HCV replicons of different genotypes may be used for anti-HCV evaluation. We used the subgenomic HCV replicons of genotype 1a (H77 strain), 1b (Con1 strain), and 2a (JFH-1 strain), which are Huh7 human hepatoma cell lines that contains an HCV replicon.
Briefly, the replicon cells were plated at 5,000 cells/well into 96-well plates that were dedicated for the analysis of cell numbers (cytotoxicity) or antiviral activity. On the following day, samples were diluted with assay media and added to the appropriate wells. Cells were processed 72 hours later when the cells were still sub-confluent. For the luciferase endpoint assay, HCV replicon levels were assessed as replicon-derived Luc activity. The concentration of drug that reduced cell viability was assessed by the fluorometric CytoTox-1 cell proliferation assay (Promega), (expressed as cell numbers). For the qRT-PCR/TaqMan assay, total RNA was extracted from the replicon cells using RNeasy 96 kit (Qiagen) according to the manufacturer's protocol. Real-time RTPCR/TaqMan assays were performed to measure copy numbers of the replicon RNA and cellular ribosomal RNA. […]
(A replicon is a self-replicating genome or part of one, used to study replication in cells.)

Data set [2] deals with cell culture-derived HCV (HCVcc). The experiment in a line: microbe, parasite or virus in culture. In kind it is cell-based, hepatitis C virus. The method, then:
(§2) Huh7.5 cells were grown in Dulbecco's modified essential media (DMEM), 10%0/fetal bovine serum (FBS), 1% penicillin-streptomycin (pen-strep), 1% Non-essential amino acids (NEAA) in a 5% CO2 incubator at 37° C. Huh7.5 cells were seeded at 1×10^4 cells per well into 96-well plates according to Southern Research Institute standard format. Test articles were serially diluted with DMEM plus 5% FBS. The diluted compound in the amount of […] was mixed with equal volume of cell culture-derived HCV (HCVcc), then applied to appropriate wells in the plate. Human interferon alpha-2b (rIFNα-2b) and/or Sofosbuvir were included as a positive control. After 72 hr incubation at 37° C., the cells were lysed for measurement of luciferase activity using Renilla Luciferase Assay System (Promega) according to manufacturer's instruction. The number of cells in each well were determined by CytoTox-1 reagent (Promega). Test articles were tested at 6 serial dilutions in triplicate to derive, if applicable, EC50 and EC90 (concentration inhibiting HCVcc infectivity by 50% and 90%, respectively), CC50 (concentration decreasing cell viability by 50%) and SI (selectivity index: CC50/EC50) values (Table 1).

A further data set is described as follows: in vitro. It counts as cell-based. As to conditions: human. The method, then: as §2
In another data set the test system is HCV replicon. The data set can be described thus: HCV replicon assay (antiviral activity, luciferase endpoint). It counts as cell-based, hepatitis C virus.
Source text: as §1
The HCV replicon antiviral evaluation assay examined the effects of compounds at six serial dilutions. Human interferon alpha-2b (rIFNα-2b) and/or Sofosbuvir were included in each run as a positive control compound.
Briefly, the replicon cells were plated at 5,000 cells/well into 96-well plates that were dedicated for the analysis of cell numbers (cytotoxicity) or antiviral activity. On the following day, samples were diluted with assay media and added to the appropriate wells. Cells were processed 72 hours later when the cells were still sub-confluent. For the luciferase endpoint assay, HCV replicon levels were assessed as replicon-derived Luc activity. The concentration of drug that reduced cell viability was assessed by the fluorometric CytoTox-1 cell proliferation assay (Promega), (expressed as cell numbers). For the qRT-PCR/TaqMan assay, total RNA was extracted from the replicon cells using RNeasy 96 kit (Qiagen) according to the manufacturer's protocol. Real-time RTPCR/TaqMan assays were performed to measure copy numbers of the replicon RNA and cellular ribosomal RNA. Where applicable EC50 (concentration inhibiting HCV replicon by 50%), EC90 (concentration inhibiting HCV replicon by 90%), CC50 (concentration decreasing cell viability by 50%), CC90 (concentration decreasing cell viability by 90%) and SI (selectivity indices: CC50/EC50 and CC90/EC90) values were derived.

Turning to `COC(=O)C1=C(C)NC(C)=C(C(=O)OC(C)C)C1c1cccc2nonc12` (centres unmarked) [Isradipine, isradipine], the CC50 at 72 h in data set [1] came out at 50.8 µM; in the data set “in vitro”, 51.2 µM. Moreover, the EC50 in data set [2] (Hepatitis C virus, Huh7.5, 72 h, read-out: EC50 (concentration inhibiting HCVcc infectivity by 50%)) was 12.6 µM; in the data set with HCV replicon (Hepatitis C virus, GT1B, 72 h, read-out: EC50 (concentration inhibiting HCV replicon by 50%)) it was 51.4 µM. Besides, the “Selectivity index (CC50/EC50)” value in data set [2] (In vitro HCV cc assay, pre-infection) was determined as 4.07; in the data set with HCV replicon (In vitro HCV replicon assay, post-infection) it was 0.99. For the same molecule, the “anti-Hepatitis C activity (in words)” value (in data set [2] (hepatitis C viral infectivity assay); in the data set on HCV replicon (HCV replicon assay)) was “significant anti-Hepatitis C activity” in each case.
